Laboratory results as given in US3959252A, “Alkamoyl-josamycins” (Yamanouchi Pharmaceutical Co., Ltd., priority 1968, dated 1976).
Like-named read-outs stand apart in the source and are kept apart here.

Experiments:
[1] = system: Staphylococcus aureus PC, SM, TC, EM, SA resistant; assay: MIC, agar dilution on nutrient agar; type: cell-based; conditions: acetylated Josamycins as Josamycin equivalent, read-out: Minimum Inhibitory Concentration (MIC)
Procedure: (§1) Experimental procedure: Minimum inhibitory concentrations (MIC) were determined as to Josamycin, monoacetyl-josamycin-1, monoacetyl-josamycin-2and diacetyl-josamycin, according to usual agar dilution method on nutrient agar.

[2] = system: Staphylococcus aureus PC, CP, TC, SA resistant; assay: MIC, agar dilution on nutrient agar; type: cell-based; conditions: acetylated Josamycins as Josamycin equivalent, read-out: Minimum Inhibitory Concentration (MIC)
Procedure: as §1

[3] = system: Salmonella typhi H 901W; assay: MIC, agar dilution on nutrient agar; type: cell-based; conditions: Salmonella enterica, read-out: Minimum Inhibitory Concentration (MIC)
Procedure: as §1

[4] = system: Shigella flexneri 2a 1675; assay: MIC, agar dilution on nutrient agar; type: cell-based; conditions: 2A1675, acetylated Josamycins as Josamycin equivalent, read-out: Minimum Inhibitory Concentration (MIC)
Procedure: as §1

[5] = system: Staphylococcus aureus FDA 209P; assay: MIC, agar dilution on nutrient agar; type: cell-based; conditions: FDA209P, acetylated Josamycins as Josamycin equivalent, read-out: Minimum Inhibitory Concentration (MIC)
Procedure: as §1

[6] = system: Escherichia coli PCI 602; assay: MIC, agar dilution on nutrient agar; type: cell-based; conditions: PCI602, acetylated Josamycins as Josamycin equivalent, read-out: Minimum Inhibitory Concentration (MIC)
Procedure: as §1

[7] = system: Bacillus subtilis ATCC 6635; assay: MIC, agar dilution on nutrient agar; type: cell-based; conditions: ATCC6635, acetylated Josamycins as Josamycin equivalent, read-out: Minimum Inhibitory Concentration (MIC)
Procedure: as §1

[8] = system: Staphylococcus aureus FDA 209P Smith; assay: MIC, agar dilution on nutrient agar; type: cell-based; conditions: FDA209P, acetylated Josamycins as Josamycin equivalent, read-out: Minimum Inhibitory Concentration (MIC)
Procedure: as §1

[9] = system: Mycobacterium 607; assay: MIC, agar dilution on nutrient agar; type: cell-based; conditions: acetylated Josamycins as Josamycin equivalent, read-out: Minimum Inhibitory Concentration (MIC)
Procedure: as §1

[10] = pKa' measurement; type: physicochemical; conditions: 40% aqueous methanol
Source text: 4. pKa' less than 6 (measured in 40% aqueous methanol)
4. pKa 7.03 (measured in 40% aqueous methanol)

[11] = system: Staphylococcus aureus No. 226 strain; assay: Protection of mice from subcutaneous Staphylococcal infection; type: in vivo; conditions: 48 hours, control 88.2
Procedure: Experimental procedure: Groups of 5 mice were inoculated subcutaneously in the back with 10^8 cells (in 0.1 ml volume) of Staphylococcus aureus No. 226 strain. Immediately after the infection, Josamycin or monoacetyl-josamycin-2 was administered orally. To the control group, no medicament was administered. After 48 hours, the animals were killed. The skin of the back of each mouse was cut open, and the size of subcutaneous abscess was measured.

[12] = titrated in aqueous methanol; base form; cited from earlier work
[13] = system: Staphylococcus aureus Smith; assay: Protection of mice from systemic staphylococcal infection; type: in vivo; conditions: 5 mice, control 0 of 10
Source text: Experimental procedure: Group of 5 mice were inoculated intraperitoneally with 1000 MLD (containing 5% of mucin added) of Staphylococcus aureus Smith. Immediately after the infection, a single dose of each antibiotic was given orally. The survival of mice after 7 days was observed. The group for control (10 mice) was given no antibiotic.

[14] = Josamycin base, as described; cited from earlier work
[15] = system: staphylococci resistant to streptothricin, telomycin, streptomycin, chloramphenicol, or penicillin; conditions: cited from earlier work
[16] = Solubility
[17] = 200 mg/kg oral (as Josamycin equivalent)
[18] = 50 mg/kg oral single dose (as Josamycin equivalent)
[19] = 150 mg/kg oral single dose (as Josamycin equivalent)
[20] = 500 mg/kg oral single dose (as Josamycin equivalent)

COC1C(OC(C)=O)CC(=O)OC(C)C/C=C/C=C/C(OC(C)=O)C(C)CC(CC=O)C1OC1OC(C)C(OC2CC(C)(O)C(OC(=O)CC(C)C)C(C)O2)C(N(C)C)C1OC(C)=O (centres unmarked) [Diacetyl-josamycin, diacetyl-josamycin]
MIC [1]: > 100 µg/mL | MIC [2]: 0.78 µg/mL | MIC [3]: > 100 µg/mL | MIC [4]: 50 µg/mL | MIC [5]: 0.39 µg/mL | MIC [6]: > 100 µg/mL | MIC [7]: 0.39 µg/mL | MIC [8]: 0.39 µg/mL | MIC [9]: 3.1 µg/mL | pKa [10]: < 6

CO[C@@H]1[C@@H](O[C@@H]2O[C@H](C)[C@@H](O[C@H]3C[C@@](C)(O)[C@@H](OC(=O)CC(C)C)[C@H](C)O3)[C@H](N(C)C)[C@H]2O)[C@@H](CC=O)C[C@@H](C)[C@@H](O)/C=C/C=C/C[C@@H](C)OC(=O)C[C@H]1OC(C)=O [Josamycin]
Size of abscess ([11]; 50 mg/kg oral): 21.2 mm^2 | Size of abscess [11, 17]: 4.19 mm^2 | pKa' [12]: 7.1 | Survival on 7th day (number of mice) [13, 18]: 0 | Survival on 7th day (number of mice) [13, 19]: 2 | Survival on 7th day (number of mice) [13, 20]: 5 | MIC [1]: > 100 µg/mL | MIC [2]: 0.78 µg/mL | MIC [3]: > 100 µg/mL | MIC [4]: 50 µg/mL | MIC [5]: 0.39 µg/mL | MIC [6]: > 100 µg/mL | MIC [7]: 0.39 µg/mL | MIC [8]: 0.39 µg/mL | MIC [9]: 3.1 µg/mL | Solubility (easily soluble solvents) [14]: easily soluble in acidic water, methanol, ethanol, chloroform, ethyl acetate, and acetone | Solubility (slightly soluble solvents) [14]: slightly soluble in water, petroleum ether, ligroin, and n-hexane | Solubility (soluble solvents) [14]: soluble in benzene, ether and carbon tetrachloride | Inhibition of growth of resistant staphylococci [15]: inhibits the growth

COC1C(OC(C)=O)CC(=O)OC(C)C/C=C/C=C/C(O)C(C)CC(CC=O)C1OC1OC(C)C(OC2CC(C)(O)C(OC(=O)CC(C)C)C(C)O2)C(N(C)C)C1OC(C)=O (centres unmarked) [Monoacetyl-josamycin-1, 2'-acetyl-josamycin]
Solubility (easily soluble solvents) [16]: easily soluble in acetone, methylethylketone, chloroform, ethyl acetate and benzene | Solubility (hardly soluble solvents) [16]: hardly soluble in water, petroleum ether and n-hexane | Solubility (soluble solvents) [16]: soluble in methanol and ethanol | MIC [1]: > 100 µg/mL | MIC [2]: 0.78 µg/mL | MIC [3]: > 100 µg/mL | MIC [4]: 50 µg/mL | MIC [5]: 0.39 µg/mL | MIC [6]: > 100 µg/mL | MIC [7]: 0.39 µg/mL | MIC [8]: 0.39 µg/mL | MIC [9]: 3.1 µg/mL | pKa ([10]; read-out: pKa'): < 6

COC1C(OC(C)=O)CC(=O)OC(C)C/C=C/C=C/C(OC(C)=O)C(C)CC(CC=O)C1OC1OC(C)C(OC2CC(C)(O)C(OC(=O)CC(C)C)C(C)O2)C(N(C)C)C1O (centres unmarked) [Monoacetyl-josamycin-2, monoacetyl-josamycin-2]
Size of abscess [11, 17]: 0.64 mm^2 | Solubility (easily soluble solvents) [16]: easily soluble in acetone, chloroform, methanol, ethyl acetate and ethylether | Solubility (hardly soluble solvents) [16]: hardly soluble in water, petroleum ether and n-hexane | Solubility (soluble solvents) [16]: soluble in carbon tetrachloride | Survival on 7th day (number of mice) [13, 18]: 0 | Survival on 7th day (number of mice) [13, 19]: 3 | Survival on 7th day (number of mice) [13, 20]: 5 | MIC [1]: > 100 µg/mL | MIC [2]: 0.78 µg/mL | MIC [3]: > 100 µg/mL | MIC [4]: 50 µg/mL | MIC [5]: 0.39 µg/mL | MIC [6]: > 100 µg/mL | MIC [7]: 0.39 µg/mL | MIC [8]: 0.39 µg/mL | MIC [9]: 3.1 µg/mL | pKa ([10]; read-out: pKa'): 7.03
